Legend:
[1] = Fluorescence quantum yield (QY); assay type: physicochemical
[2] = Fluorescence (luminescent) lifetime of dyes and conjugates; assay type: physicochemical; settings: for luminescent lifetime (τ): solvent not stated
Text: Typical assays based on the measurement of the fluorescence lifetime as a parameter include for example FRET (fluorescence resonance energy transfer) assays. The binding between a fluorescent donor labeled species (typically an antigen, or a ligand) and a fluorescent acceptor labeled species may be accompanied by a change in the intensity and/or the fluorescence lifetime. The lifetime can be measured using intensity-(Time corrlated single photon counting TCSPC) or phase-modulation-based methods (J. R. LAKOWICZ, PRINCIPLES OF FLUORESCENCE SPECTROSCOPY (2nd Ed. 1999)).

[3] = Absorption and emission maxima (spectral properties); assay type: physicochemical
Text: The synthesis of representative dyes is provided in the Examples Section. The structures, absorption and emission data as well as the luminescent lifetime in different solvents of specific dyes are given in Table 1.

[4] = cited from earlier work

Compound	λ(abs) [nm] ([3]; Ethanol)	λ(fl) [nm] ([3]; Ethanol)	λ(abs) [nm] ([3]; Water)	λ(fl) [nm] ([3]; Water)	Lifetime [ns] ([2]; Ethanol (Table 1))	Lifetime [ns] ([2]; Water (Table 1))	(QY [%]) ([1]; Water (Table 1)) [%]	(QY [%]) ([1]; Ethanol (Table 1)) [%]	other results
CN(C)c1ccc2c3c(cccc13)C(=O)N(c1ccccc1)C2=O [Dye 1, phenylimide of 4-dimethyl aminonaphthalic acid]									(QY [%]) ([1]; Ethanol): 0.5%; Q.Y. in water compared with ethanol ([1]; Water): even further reduced; Lifetime [ns] ([2]; Ethanol): <<1 ns; lifetime in ethanol ([2]; Ethanol): < 1 ns; lifetime in water compared with ethanol ([2]; Water): even further reduced
CN1C[N+](C)(C)Cc2cc3c4c(cccc4c21)C(=O)N(c1ccc(C(=O)O)cc1)C3=O.[Cl-] [Dye 3, 5-(4-carboxyphenyl)-9,9,11-trimethyl-4,6-dioxo-5,6,8,9,10,11-hexahydro-4H-isoquino[4,5-g,h]quinazolin-9-ium chloride]									lifetime in water ([2]; Water): 9.3 ns; overall decrease in fluorescence lifetime ([2]; free dye in water vs IgG conjugate at D/P about 8): 10%; lifetime labeled to IgG ([2]; labeled to IgG at a D/P ratio of about 1): 8.9 ns; lifetime labeled to IgG ([2]; labeled to IgG, D/P ratio of about 8): 8.4 ns
CN1C[N+](C)(C)Cc2cc3c4c(cccc4c21)C(=O)N(c1ccc(C(=O)ON2C(=O)CCC2=O)cc1)C3=O [Dye 3-NHS]	390	500	404	518	8.0	9.3			
CN1C[N+](C)(C)Cc2cc3c4c(cccc4c21)C(=O)N(c1ccc(C(=O)O)cc1)C3=O.[Cl-] [Dye 3a]			405	515		9.4	72		
CN1C[N+](C)(C)Cc2c1cc1c3c(cccc23)C(=O)N(CCCCCC(=O)O)C1=O [Dye 4a]									luminescent lifetime (τ) [2]: 26 ns
CN1C[N+](C)(C)Cc2cc3c4c(cccc4c21)C(=O)N(c1ccccc1)C3=O.[Cl-] [Dye 5, 9,9,11-trimethyl-4,6-dioxo-5-phenyl-5,6,8,9,10,11-hexahydro-4H-isoquino[4,5-g,h]quinazolin-9-ium chloride]	393	498	405	515	8.5	9.4	72	58	λ(abs) [nm] ([3]; DMF): 393 nm; λ(fl) [nm] ([3]; DMF): 500 nm; melting point: 235 °C; (QY [%]) ([1]; Ethanol): 58%; (QY [%]) ([1]; Water): 75%; Lifetime [ns] ([2]; DMF): 9.0 ns; Lifetime [ns] ([2]; Ethanol): 8.5 ns; Lifetime [ns] ([2]; Water): 9.4 ns
CN1C[N+](C)(C)Cc2c1cc1c3c(cccc23)C(=O)N(c2ccccc2)C1=O [Dye 6, 8,10,10-trimethyl-4,6-dioxo-5-phenyl-5,6,8,9,10,11-hexahydro-4H-isoquino[5,4-fg]quinazolin-10-ium hexafluorophosphate]	414	513	426	545	23.3	22.9		51	luminescent lifetime (τ) [2]: around 23 ns
CCOC(=O)c1c(C)nn2c(=O)c3cccc4c5c(cc(c43)c12)C[N+](C)(C)CN5C.[Cl-] [Dye 8]	436	584	449	600	7.8	5.7	7	44	λ(abs) [nm] ([3]; Water + BSA): 449 nm; λ(fl) [nm] ([3]; Water + BSA): 600 nm; Lifetime [ns] ([2]; Water + BSA): 6.1 ns
CN1C[N+](C)(C)Cc2c1ccc1cc3ccccc3cc21 [Dye 13, 2,2,4-trimethyl-1,2,3,4-tetrahydronaphtho[2,3-f]quinazolin-2-ium hexafluorophosphate]	395	462	398	481		20.9	40	30	lifetime in water ([2]; Water): 20 ns
fluorescein-isothiocyanate [FITC]									lifetime losses when covalently labeled to proteins ([4]; D/P ~ 8, Lakowicz et al. 2004): ~40%; lifetime τ ([4]; free label): 4.0 ns
